# Reference: ChEMBL document CHEMBL5260811, “Drug development against tuberculosis: Impact of alkaloids” (Eur J Med Chem, 2017)
# Tested on: Mycobacterium tuberculosis
# Assay: Antimycobacterial activity against Mycobacterium tuberculosis
# Format: functional
# Details: not given
row,Compound,IC [µg/mL]
1,CO/N=c1\[n-]cnc2c1[n+](C/C=C(\C)CC/C=C(\C)CCC1=C(C)CCCC1(C)C)cn2C,6.25
2,C=C[C@H]1C=C[C@H]2[C@@H]3C[C@H](C)CC[C@H]3[C@@H]3Oc4ccc(cc4)C[C@]4(O)NC(=O)[C@]5(O[C@H]54)C(=O)[C@@H]1[C@H]23,0.78
3,C/C=C/[C@H]1C=C[C@H]2[C@@H]3C[C@H](C)CC[C@H]3[C@@H]3Oc4ccc(cc4)C[C@@H]4C(=O)NC(=O)[C@H]4C(=O)[C@@H]1[C@H]23,3.125
4,C=C[C@H]1C=C[C@H]2[C@@H]3C[C@H](C)CC[C@H]3[C@@H]3Oc4ccc(cc4)C[C@@H]4C(=O)NC(=O)[C@H]4C(=O)[C@@H]1[C@H]23,0.78
5,CC1=C(CC/C(C)=C/CC/C(C)=C/C[n+]2cn(C)c3nc[n-]/c(=N\OC(C)(C)C)c32)C(C)(C)CCC1,6.25
6,C=C[C@H]1C=C[C@H]2[C@@H]3C[C@H](C)CC[C@H]3[C@@H]3Oc4ccc(cc4)C[C@@]4(O)C[C@H](C(=O)N4)C(=O)[C@@H]1[C@H]23,0.78

# Same assay, conditions: Mycobacterium tuberculosis
row,Compound,MIC
1,CC(=O)NCCC1C2=C3C(=NC=CC3c3ccccc3N2)c2ncsc21 (stereo unspecified),34 µM
2,CCCCC/C=C\C/C=C\CCCCc1cc(=O)c2ccccc2n1C,2 µg/mL
3,COc1ccc2c(c1)[nH]c1cc(OC)c(C(=O)O)cc12 [CLAUSINE K],100 µg/mL
4,COc1c(O)c2c3c(c1OC)CCN[C@H]3Cc1cc3c(cc1-2)OCO3.Cl,4 µg/mL
5,c1cc2c[n+](c1)CCCCCCCCCCCCCCc1ccc[n+](c1)CCCCCCCCCC2,5.3 µg/mL
6,CN(Cc1cc(Br)cc(Br)c1N)C1CCCCC1 [BROMHEXINE],6 µg/mL
7,COC(=O)c1ccc2[nH]c3ccccc3c2c1,50 µg/mL
8,COc1c(O)c2c3c(c1OC)CCN[C@H]3Cc1cc3c(cc1-2)OCO3,64 µg/mL
9,COC(=O)N1CCc2c(OC)c(OC)c(O)c3c2[C@@H]1Cc1cc2c(cc1-3)OCO2,128 µg/mL
10,CCCCCCCCCCCc1cc(=O)c2ccccc2n1C,2 µg/mL
11,Cn1c(=O)ccc2ccccc21,6.25 µg/mL
12,[C-]#[N+][C@]12C=CC(C)(C)c3[nH]c4cccc5c4c3[C@]1(O)[C@H](CC[C@]2(C)C=C)C5(C)C [AMBIGUINE L ISONITRILE],4.5 µg/mL
13,CO[C@H]1/C=C/O[C@@]2(C)Oc3c(C)c(O)c4c(O)c(c(/C=N/N5CCN(C6CCCC6)CC5)c(O)c4c3C2=O)NC(=O)/C(C)=C\C=C\[C@H](C)[C@H](O)[C@@H](C)[C@@H](O)[C@@H](C)[C@H](OC(C)=O)[C@@H]1C [RIFAPENTINE],0.02 µg/mL
14,O=C(NN1C(=O)C(Cl)C1c1ccccc1Cl)c1cc(O)c(O)c(O)c1 (stereo unspecified),0.76 µg/mL
15,C[n+]1cc2c3c(ccc2c2ccc4cc5c(cc4c21)OCO5)OCO3.[Cl-] [SANGUINARIUM CHLORIDE],24.5 µg/mL
16,C=CC(C)(C)c1[nH]c2c(CC=C(C)C)cc(CC=C(C)C)cc2c1C[C@@H]1NC(=O)[C@H](C)NC1=O [ECHINULIN],170 µg/mL
17,O=[N+]([O-])c1cn2c(n1)OC[C@@H](OCc1ccc(-c3ccc(OC(F)(F)F)cc3)nc1)C2 [TBA-354],0.34 µg/mL
18,CN(C)c1ccc(C2C(Cl)C(=O)N2NC(=O)c2cc(O)c(O)c(O)c2)cc1 (stereo unspecified),0.62 µg/mL
19,c1cc2c[n+](c1)CCCCCCCCCCCCc1ccc[n+](c1)CCCCCCCCCCC2,9.3 µg/mL
20,COc1ccc(CCC2CCc3ccccc3N2C)cc1OC (stereo unspecified),6.25 µg/mL
21,O=C(NN1C(=O)C(Cl)C1c1ccc(Cl)cc1)c1cc(O)c(O)c(O)c1 (stereo unspecified),0.83 µg/mL

row,Compound,MIC
1,[C-]#[N+][C@@H]1[C@]2(O)c3c(C(C)(C)C=C)[nH]c4cccc(c34)C(C)(C)[C@H]2CC[C@]1(C)C=C [AMBIGUINE C ISONITRILE],7 µM
2,[C-]#[N+][C@@H]1[C@H]2c3c[nH]c4cccc(c34)C(C)(C)[C@@H]2CC[C@]1(C)C=C [HAPALINDOLE H],58.8 µM
3,CC(=O)NCCC1=C2Nc3ccccc3C3C=CN=C(C4=C1SCO4)C23 (stereo unspecified),17 µM
4,CCCC/C=C\CCCCCCc1cc(=O)c2ccccc2n1C,2 µg/mL
5,[C-]#[N+][C@@H]1[C@@H]2c3c(C(C)(C)C=C)[nH]c4cccc(c34)C(C)(C)[C@H]2C[C@@H](Cl)[C@]1(C)C=C [AMBIGUINE A ISONITRILE],46.7 µM
6,[C-]#[N+][C@]12C[C@@H](O)C(C)(C)c3[nH]c4cccc5c4c3[C@]1(O)[C@H](CC[C@]2(C)C=C)C5(C)C [AMBIGUINE N ISONITRILE],10.9 µg/mL
7,Nc1c(Br)cc(Br)cc1CN[C@H]1CC[C@H](O)CC1 [AMBROXOL],6 µg/mL
8,c1cc2c[n+](c1)CCCCCCCCCCCCCCc1ccc[n+](c1)CCCCCCCCCCC2,4.6 µg/mL
9,O=[N+]([O-])c1cn2c(n1)OC[C@@H](OCc1ccc(OC(F)(F)F)cc1)C2 [PRETOMANID],0.015 µg/mL
10,[C-]#[N+][C@]12[C@H]3O[C@H]3C(C)(C)c3[nH]c4cccc5c4c3[C@]1(O)[C@H](C[C@@H](Cl)[C@]2(C)C=C)C5(C)C [AMBIGUINE E ISONITRILE],21 µM
11,[C-]#[N+][C@@H]1[C@@H]2c3c[nH]c4cccc(c34)C(C)(C)[C@H]2C[C@@H](Cl)[C@]1(C)C=C [HAPALINDOLE G],6.8 µM
12,CCCC/C=C\CCCCc1cc(=O)c2ccccc2n1C,2 µg/mL
13,[C-]#[N+][C@]12[C@H]3O[C@H]3C(C)(C)c3[nH]c4cccc5c4c3[C@]1(O)[C@H](CC[C@]2(C)C=C)C5(C)C,13.1 µM
14,c1cc2c[n+](c1)CCCCCCCCCCCCc1ccc[n+](c1)CCCCCCCCCC2,4.6 µg/mL
15,CC(=O)NCCC1C2=C3C(=NC=CC3c3ccccc3N2)C2=C1SCC(=O)N2 (stereo unspecified),32 µM
16,c1cc2c[n+](c1)CCCCCCCCCCCCCc1ccc[n+](c1)CCCCCCCCCC2,6.6 µg/mL
17,CCCCC/C=C\C/C=C\CCc1cc(=O)c2ccccc2n1C,2 µg/mL
18,O=C(NN1C(=O)C(Cl)C1c1cccc(Cl)c1)c1cc(O)c(O)c(O)c1 (stereo unspecified),0.57 µg/mL
19,[C-]#[N+][C@]12C[C@@H](O)C(C)(C)c3[nH]c4cccc5c4c3[C@]1(O)[C@H](C[C@@H](Cl)[C@]2(C)C=C)C5(C)C [AMBIGUINE M ISONITRILE],3.3 µg/mL
20,COc1ccc2c(c[n+](C)c3c4cc5c(cc4ccc23)OCO5)c1OC.[Cl-] [CHELERYTHRINE CHLORIDE],14.3 µg/mL

# Tested on: Mycolicibacterium smegmatis
# Assay: Antimycobacterial activity against Mycobacterium smegmatis
# Format: functional
# Details: not given
row,Compound,IC [µg/mL]
1,C1=C\CCCCN2C[C@H]3CCCC/C=C\CCCCN4CC[C@@H]([C@H](CCCCCC/1)C4)[C@H](C3)C2,2.5
2,C1=C\CCCC[C@@H]2CN3CCCC/C=C\CCCC[C@H]4C[C@H](CN(CCCCCC/1)C4)[C@H]2CC3,1

# Same assay, conditions: Mycolicibacterium smegmatis
row,Compound,MIC [µg/mL]
1,Nc1ccccc1-c1c[nH]c(C(=O)O)c1,0.5

# Tested on: Mycobacterium tuberculosis
# Assay: Antimycobacterial activity against Mycobacterium tuberculosis H37Rv
# Format: functional
# Details: not given
row,Compound,MIC
1,CC[C@@H](CO)NCCN[C@@H](CC)CO [ETHAMBUTOL],5.61 µg/mL
2,Cc1ccc(SC2=CC(=O)c3nc4ccccc4c(C)c3C2=O)cc1,2.2 µM
3,CC1=CCC[C@H](C)[C@@]1(C)CC/C(C)=C/CC/C(C)=C/Cn1c[n+](C)c2ncnc(N)c21,3.13 µg/mL
4,Nc1nc(/C=C/CNC(=O)c2cc(Br)c[nH]2)c[nH]1,6.1 µg/mL
5,CCCC1CCC2(CC1)SCC(=O)N2NC(=O)c1[nH]c2ccc(F)cc2c1-c1ccccc1 (stereo unspecified),6.25 µg/mL
6,O=C1C(c2ccc(O)cc2)=C(c2ccc(O)cc2)C(=O)N1CCc1ccc(O)cc1,16 µg/mL
7,c1cc2c[n+](c1)CCCCCCCCCCCCCc1ccc[n+](c1)CCCCCCCCCCCCC2,4 µg/mL
8,COC1=CC(=O)c2nc3ccccc3c3ccnc1c23,1.5 µM
9,COc1cc2c(cc1OC)C(CC(C)=O)N(C)c1c-2ccc2cc3c(cc12)OCO3 (stereo unspecified),6.2 µg/mL
10,CN1C=NC2=C(N)NCNC21 (stereo unspecified),6.25 µg/mL
11,C=C1CCCC(C)(C)[C@H]1CC/C(C)=C/CC/C(C)=C/C[n+]1cn(C)c2nc[nH]/c(=N\OC)c21.[Cl-],3 µg/mL
12,C=C1CC[C@@]2(C#N)[C@H]3[C@H](CC[C@@H]2C)[C@@H](C)C[C@@H](CC(C)(C)NC(=O)CN2CCC2=O)[C@H]13,15.3 µg/mL
13,CO/N=c1\[nH]cnc2c1[n+](C/C=C(\C)CC/C=C(\C)CCC1CCCCC1)cn2C.[Cl-],1.56 µg/mL
14,CO/N=c1\[nH]cnc2c1[n+](C/C=C(\C)CC/C=C(\C)CC/C=C(\C)CCC=C(C)C)cn2C.[Cl-],3.13 µg/mL
15,CC(=O)C[C@@H]1C[C@H]2[C@H]([C@@H]3c4[nH]c5ccccc5c4CCN13)[C@H](O)C13CC/C=C\CCCCN1C[C@@]21CC/C=C\CCCCN[C@@H]31,5.2 µg/mL
16,C=C[C@]1(C)C/C=C(/C#N)C(C)(C)c2[nH]c3cccc4c3c2C(=C)[C@H](CC1Cl)C4(C)C (stereo partly specified),53.7 µM

row,Compound,MIC
1,Nc1c(Br)cc(O)c(CC(=O)O)c1Br,15.9 µg/mL
2,O=C1C(c2ccc(O)cc2)=C2C(=C(c3ccc(O)cc3)C(=O)N2CCc2ccc(O)cc2)c2ccc(O)cc21,4 µg/mL
3,CC(=O)C[C@H]1C[C@H]2[C@H]([C@@H]3c4[nH]c5ccccc5c4CCN13)[C@H](O)C13CC/C=C\CCCCN1C[C@@]21CC/C=C\CCCCN[C@@H]31,1.5 µg/mL
4,CCCCCCCCC/C=C/C=C/C(=O)NCC(C)C,6.2 µg/mL
5,C=C[C@@]1(C)C(Cl)C[C@@H]2C(C)(C)c3cccc4[nH]c5c(c34)[C@@]2(O)[C@]1(C#N)[C@@]1(CO1)C5(C)C (stereo partly specified),2 µM
6,Oc1ccc2[nH]c3c(C4=C[C@@]5(O)CC/C=C\CCCCN6CC[C@@H]4C4(C[C@@H]7/C=C\CCCCN7C45)C6)nccc3c2c1 (stereo partly specified),1.9 µg/mL
7,C=C[C@@]1(C)[C@H](Cl)C[C@@H]2C(C)(C)c3cccc4[nH]c5c(c34)[C@@]2(O)[C@]1(C#N)C=CC5(C)C,2.8 µg/mL
8,C=C1CC[C@@]2(C#N)[C@H]3[C@H](CC[C@@H]2C)[C@@H](C)C[C@@H](CC(C)(C)C)[C@H]13,2 µg/mL
9,O=C1C(c2ccc(O)cc2)=C(c2ccc(O)cc2)/C(=C/c2ccc(O)cc2)N1CCc1ccc(O)cc1,32 µg/mL
10,CC1CCC(=NNC(=O)c2[nH]c3ccc(F)cc3c2-c2ccccc2)CC1 (stereo unspecified),6.25 µg/mL
11,C=C1c2[nH]cc(Br)c2[C@H]2NC(N)=N[C@]23CCCN13,64 µg/mL
12,CCSC1=CC(=O)c2nc3ccccc3c3ccnc1c23,0.34 µM
13,Cc1ccc(SC2=CC(=O)c3nc4ccccc4c4ccnc2c34)cc1,9 µM
14,O=C1c2c(O)ccnc2-c2nccc3c2c1nc1ccccc13,> 42 µM
15,COc1c(O)ccc2c1cnc1c3cc4c(cc3ccc21)OCO4 [DECARINE],3.1 µg/mL
